Source: patent US20250144046A1, “PHARMACEUTICAL COMPOSITIONS AND METHODS OF ADMINISTRATION” (METASTX, LLC, priority 2022, published 2025)

Assays:
PC3 cells [1] = assay: MTT assay, cancer cell metabolic activity and proliferation; type: cell-based; conditions: Homo sapiens, PC-3, 24 h treatment, read-out: IC50, anti-proliferative effect (MTT)
Method: A MTT (3-[4,5-dimethylthiazol-2-yl]-2,5 diphenyl tetrazolium bromide) assay was used to assess cancer cell metabolic activity and proliferation.
The protocol was as follows: • A total of 4000 PC3 cells were seeded per well in 96-well plates. Following attachment, cells were treated with vehicle control DMSO, IPA3, Compound 1, Compound 3, and Compound 4 at various doses as indicated for 24 h. Growth inhibition was determined by MTT [3-(4,5-dimethylthiazol-2-yl)-2,5-diphenyltetrazolium bromide] (Sigma-Aldrich, St. Louis, MO, USA; catalog No. M2128) assay. The MTT solution was added to the media at a final concentration of 0.8 mg/mL and cells were incubated at 37° C. for 2 hours. After aspiration of media, formazan crystals were dissolved in 100 μl of DMSO. Optical densities were measured at 570 nm using a SynergyHT plate reader (BioTek. Winooski. […]. USA). To calculate IC50 values. GraphPad Prism Software was used (GraphPad Software. San Diego, CA. USA).

PC3 cells [2] = assay: Cell-monolayer scratch assay (cell motility); type: cell-based, human; conditions: 36 hours, half of the IC50 doses from the MTT assay
Method: The motility of cancer cells is an index of their ability to come out of the primary tumor, invade, and metastasize to distant tissues. MetasTx tested Compound 1. Compound 3, and Compound 4 for their inhibitory effect on human metastatic prostate cancer (PC3) cells by using a ‘cell-monolayer scratch assay”, a reliable technique to determine the rate of cancer cell motility.
A total of 0.5×10^5 PC3 cells were plated per well on 6 well plates to obtain 95% confluent monolayers of cells after overnight incubation. The following day, a linear scratch (wound) was made using a 200 μl pipette tip and the detached cells were washed away by sterile phosphate-buffered saline (PBS). Images of scratches were captured from three different locations under a phase-contrast microscope at 4× magnification. The monolayers were treated with the desired doses of vehicle or drugs (half of the IC50 doses determined from the MTT assay). The cells were allowed to migrate for 36 hours, and images of the wound were re-captured from the same locations. The percentage of healed areas was determined using the NIH ImageJ software by measuring the distance of imported images in Microsoft Office PowerPoint (Microsoft Office Inc.) at the same magnification.

PC3 cells [3] = assay: Annexin V-PE / 7-AAD apoptosis and necrosis assay (flow cytometry); type: cell-based, human; conditions: 24 hours treatment
Method: The anti-cancer efficacy of a drug was also evaluated based on the ability of the compound to induce apoptosis and/necrosis in cancer cells. […] Compound 1. Compound 3, and Compound 4 were tested based on their ability to induce apoptosis and necrosis in vitro. The protocol was as follows:
The apoptotic death of cells was determined using an Annexin V-PE apoptosis detection kit (Cat #559763; BD Biosciences. CA. USA) according to the manufacturer's protocol. In brief. PC3 cells were treated with DMSO (0.3%). IPA3. Compound 1. Compound 3 and Compound 4 for 24 hours. At the end of treatment, cells were trypsinized, washed with PBS and stained with annexin V-Phycoerythrin (PE) and 7-Amino-Actinomycin (7-AAD). The stained cells were analyzed using a flow cytometer within 1 h of staining.

PAK4 = PAK4 (Homo sapiens, UniProt O96013); conditions: group II PAK; cited from earlier work
Sequence of PAK4 (O96013 whole entry, species assumed): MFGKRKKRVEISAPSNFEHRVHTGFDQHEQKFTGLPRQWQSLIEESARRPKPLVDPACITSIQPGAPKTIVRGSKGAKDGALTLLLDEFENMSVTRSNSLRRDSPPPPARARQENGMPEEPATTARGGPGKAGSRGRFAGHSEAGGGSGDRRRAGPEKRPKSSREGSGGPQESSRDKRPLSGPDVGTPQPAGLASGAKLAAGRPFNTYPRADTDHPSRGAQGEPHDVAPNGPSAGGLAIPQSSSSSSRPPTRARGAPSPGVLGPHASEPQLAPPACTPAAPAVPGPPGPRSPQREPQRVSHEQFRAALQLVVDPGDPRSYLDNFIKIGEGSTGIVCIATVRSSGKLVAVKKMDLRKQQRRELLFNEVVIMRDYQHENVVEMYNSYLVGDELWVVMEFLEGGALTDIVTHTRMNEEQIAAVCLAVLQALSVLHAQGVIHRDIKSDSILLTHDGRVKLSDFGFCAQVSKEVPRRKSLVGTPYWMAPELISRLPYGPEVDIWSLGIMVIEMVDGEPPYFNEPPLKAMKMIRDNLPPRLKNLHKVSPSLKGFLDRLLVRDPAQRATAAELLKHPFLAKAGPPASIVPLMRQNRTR

PAK5 = PAK5 (Homo sapiens, UniProt Q9P286); conditions: group II PAK; cited from earlier work
Sequence of PAK5 (Q9P286 whole entry): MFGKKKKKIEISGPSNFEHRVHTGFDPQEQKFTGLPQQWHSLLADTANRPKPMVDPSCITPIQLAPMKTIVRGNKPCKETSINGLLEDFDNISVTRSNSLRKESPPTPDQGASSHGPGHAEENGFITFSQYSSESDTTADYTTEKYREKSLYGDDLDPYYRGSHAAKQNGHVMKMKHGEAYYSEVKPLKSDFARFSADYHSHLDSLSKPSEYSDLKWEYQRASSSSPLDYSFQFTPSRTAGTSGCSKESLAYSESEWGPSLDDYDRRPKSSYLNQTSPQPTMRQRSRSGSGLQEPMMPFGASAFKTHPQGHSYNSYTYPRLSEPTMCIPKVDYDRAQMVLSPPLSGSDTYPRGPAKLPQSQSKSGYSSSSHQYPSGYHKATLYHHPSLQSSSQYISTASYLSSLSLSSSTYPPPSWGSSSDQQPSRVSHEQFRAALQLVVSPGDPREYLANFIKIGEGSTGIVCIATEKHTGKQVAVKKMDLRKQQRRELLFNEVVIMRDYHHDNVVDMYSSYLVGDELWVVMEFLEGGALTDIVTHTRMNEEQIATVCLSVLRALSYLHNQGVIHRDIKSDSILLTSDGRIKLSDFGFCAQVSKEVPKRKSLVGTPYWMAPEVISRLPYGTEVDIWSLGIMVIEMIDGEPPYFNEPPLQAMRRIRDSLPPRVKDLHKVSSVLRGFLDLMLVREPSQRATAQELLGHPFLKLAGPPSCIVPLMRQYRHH

PAK6 = PAK6 (Homo sapiens, UniProt Q9NQU5); conditions: group II PAK; cited from earlier work
Sequence of PAK6 (Q9NQU5 whole entry, species assumed): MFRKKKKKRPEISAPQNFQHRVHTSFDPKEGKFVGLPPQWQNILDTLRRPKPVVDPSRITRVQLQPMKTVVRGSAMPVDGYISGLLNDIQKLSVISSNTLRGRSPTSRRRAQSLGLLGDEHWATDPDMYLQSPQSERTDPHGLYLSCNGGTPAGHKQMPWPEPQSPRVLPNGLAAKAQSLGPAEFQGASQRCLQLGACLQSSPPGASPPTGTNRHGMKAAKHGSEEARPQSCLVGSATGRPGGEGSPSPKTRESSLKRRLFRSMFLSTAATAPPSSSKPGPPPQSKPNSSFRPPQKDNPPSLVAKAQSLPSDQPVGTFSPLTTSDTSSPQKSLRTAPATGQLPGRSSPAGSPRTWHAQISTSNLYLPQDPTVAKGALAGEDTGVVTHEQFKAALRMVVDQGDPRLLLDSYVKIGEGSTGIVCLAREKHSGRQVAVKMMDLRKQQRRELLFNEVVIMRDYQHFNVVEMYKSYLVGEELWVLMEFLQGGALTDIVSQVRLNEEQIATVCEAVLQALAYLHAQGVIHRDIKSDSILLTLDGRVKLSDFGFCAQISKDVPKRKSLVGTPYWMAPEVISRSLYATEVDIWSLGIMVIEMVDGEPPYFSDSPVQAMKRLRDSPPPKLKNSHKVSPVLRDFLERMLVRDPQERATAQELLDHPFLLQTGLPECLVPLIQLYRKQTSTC

[4] = cited from earlier work

SMILES | IC50 (PC3 cells [1]) [µM] | inhibition of PC3 cell motility compared to vehicle (DMSO)-treated control (PC3 cells [2]) | induction of apoptosis and necrosis compared to vehicle (DMSO)-treated control (PC3 cells [3]) | total cell death compared to IPA-3 (PC3 cells [3]) | inhibition of PAK4 (PAK4) | inhibition of PAK5 (PAK5) | inhibition of PAK6 (PAK6) | stability in plasma [4]
Oc1ccc2ccccc2c1CSc1c(O)ccc2ccccc12 [Compound 1] | 50.2 | did not show significant inhibition | robust induction of apoptosis and necrosis | – | – | – | – | –
Oc1ccc2ccccc2c1CSCc1c(O)ccc2ccccc12 [Compound 3] | 22.2 | significant anti-cancer cell motility effects | robust induction of apoptosis and necrosis | superior efficacy in inducing total cell death | – | – | – | –
Oc1ccc2ccccc2c1SSc1c(O)ccc2ccccc12 [IPA-3, 2,2″-dihydroxy-1, 1′-dinaphthyldisulfide] | 28 | did not show significant inhibition | robust induction of apoptosis and necrosis | – | does not inhibit | does not inhibit | does not inhibit | not very stable
Oc1ccc2ccccc2c1CCCc1c(O)ccc2ccccc12 [Compound 4] | 15.5 | significant anti-cancer cell motility effects | robust induction of apoptosis and necrosis | superior efficacy in inducing total cell death | – | – | – | –
